Experiments:
[1] = test system: ribonucleases present in rat plasma; assay: Stability of siRNA in rat plasma (PAGE gel, densitometry); format: in vitro ADME; conditions: for Stability Ranking: rat plasma 37° C.; for level of degradation on PAGE gel after treatment with plasma: fresh rat plasma, 37° C., time points 0, 30, 60 and 20 min
Method: At various time points (0, 30, 60 and 20 min), 50 μ*l of the mixture was taken out and immediately extracted by phenol:chloroform. SiRNAs were dried following precipitation by adding 2.5 volume of isopropanol alcohol and subsequent washing step with 70% ethanol. After dissolving in water and gel loading buffer the samples were analyzed on 20% polyacrylamide gel, containing 7 M urea and visualized by ethidium bromide staining and quantitated by densitometry.
The purpose of this experiment was to determine whether 2′-O-methyl modified ribonucleotides and the substitution of uridines with ribothymidines (5-methyluridine) provide for greater siRNA stability against rat plasma ribonucleases.
At various time points (0, 30, 60 and 20 min), 50 μl of the mixture was taken out and immediately extracted by phenol:chloroform. siRNAs were dried following precipitation by adding 2.5 volume of isopropanol alcohol and subsequent washing step with 70% ethanol. After resuspending in water and gel loading buffer the samples were analyzed gel electrophoresis on a 20% polyacrylamide gel, containing 7 M urea and subsequently visualized by ethidium bromide staining and quantified by densitometry.

[2] = Thermal melting profiles (Tm) of β-gal siRNA duplexes; format: physicochemical; conditions: for Avg. Tm from 1st Exp. / Tm: 1st experiment; for Avg. Tm from 2nd Exp.: 2nd (duplicate) experiment; for melts at a temperature of: text summary of Table 7; for melting temperature higher than the wild type (duplex I): versus duplex I
Excerpt: The purpose of this experiment was to determine the effect of incorporating ribothymidines in a double stranded RNA molecule in place of uridines on the melting temperature (TM) of the siRNA molecule. A higher Tm correlates with increased siRNA duplex stability.
To determine the effect of replacing uridines with ribothymidines in the siRNA duplex upon melting temperature, thermal melting profiles were generated for four β-galactosidase (β-gal) siRNA molecules (table 5). These four β-gal siRNA duplexes differ only by the presence or absence of ribothymidines in the siRNA duplex. Where rT is 5-methyluridine.
The stock solutions of single stranded oligonucleotides were prepared by dissolving the selected sequences in 400 μL 10 mM buffer phosphate pH 7.0 containing 0.1 M NaCl and 0.1 mM EDTA and diluted (1 μL to 200 μL) with water and absorbencies (A260) were measured and the contents were calculated. Also the integrity of the oligonucleotides was confirmed by HPLC analysis. To prepare the siRNA duplexes, the single stranded oligonucleotides were mixed and allowed to anneal. The UV absorption (A260) for each siRNA duplex was measured and their value are as follows: I (0.28), II (0.54), III (0.31), and IV (0.45). To test for reproducibility, the melting profile study was done in duplicate.
The thermal melting profiles of the duplexes I, II, III and IV were recorded on Shimadzu UV-VIS 1601 with thermoelectrically temperature controlled through the Peltier device. The temperature was changed at the rate of 0.5° C./minute from 90° C. to 25° C. while the absorption recorded at 260 nm. The reverse experiment is also repeated. The “melting” process is a physical phenomenon. Therefore, the generated profile (90° to 25°) ought to be superimposed on the reverse ([…] to 90°).
Differential curves were used to determine the melting point (Tm) of the duplexes. The shape of the curve defined by the derivative of a curve (versus 1/T) was used to make a robust determination of Tm and other thermodynamic data. Shimadzu TMSPC-8 and its associated software performed the needed calculations.

interferon response = assay: Interferon response in vitro; format: cell-based
Method: Interferon responsiveness is a potential side-effect of tranfecting cells with siRNAs. Thus, a study was performed in vitro to assess whether various isoforms of the LC20 siRNA would elicit an interferon response. Both unmodified and modified of the 19-mer LC20 siRNA and 21-mer LC20 siRNA were tested.

| Substance | Stability Ranking ([1]; LC20 siRNAs (Table 3)) | Avg. Tm from 1st Exp. [2] | Avg. Tm from 2nd Exp. [2] | Tm ([2]; Down profile) | Tm ([2]; Up profile) | melts at a temperature of [2] | melting temperature higher than the wild type (duplex I) [2] | level of degradation on PAGE gel after treatment with plasma [1] | interferon response (interferon response) | Stability Ranking ([1]; LC13 siRNAs (Table 4)) |
| --- | --- | --- | --- | --- | --- | --- | --- | --- | --- | --- |
| LC20-MD23: 5′-GGGT^rCGGAACCCAAGCT^r U^MeOA^MeOdTdT-3′ / 3′-CCCAGCCUUGGGUUCGAAU-p-5′ | 3 |  |  |  |  |  |  |  |  |  |
| II: β-gal siRNA, all uracils in both strands changed to ribothymidine (SEQ ID NO:1/2) (chain 1 CNACACAAANCAGCGANNNTT; chain 2 AAANCGCNGANNNGNGNAGTT; RNA at 1, 2, 3, 4, 5, 6, 7, 8, 9, 10, 11, 12, 13, 14, 15, 16, 17, 18, 19, other sugars, backbone and the base at N not given here; all uracils replaced by ribothymidine in both strands) |  | 72.35 °C | 72.25 °C | 72.8 °C | 71.9 °C | about 72.3 °C | 7.4 °C | little to no degradation |  |  |
| IV: β-gal siRNA, rT incorporated in the sense strand only (SEQ ID NO:3/4) (chain 1 CTACACAAATCAGCGATTTTT; chain 2 AAAUCGCUGAUUUGUGUAGTT; chain 1: RNA at 2, 10, 17, 18, 19, other sugars and backbone not given here; chain 2: RNA at 4, 8, 11, 12, 13, 15, 17, other sugars and backbone not given here; positions 1-19 ribonucleotides, further chemistry not fully specified) |  | 67.8 °C | 67.8 °C | 67.8 °C | 67.8 °C | 67.8 °C | 2.9 °C | little to no degradation |  |  |
| I (WT): unmodified β-gal siRNA: CUACACAAAUCAGCGAUUU TT / TT GAUGUGUUUAGUCGCUAAA (sense CUACACAAAUCAGCGAUUUTT; antisense TTGAUGUGUUUAGUCGCUAAA; chemistry not fully specified; one strand is listed 3' to 5') [reference compound] |  | 64.9 °C | 64.9 °C | 65.6 °C | 64.3 °C |  |  | begins to degrade almost immediately |  |  |
| LC20-WT: Unmodified: 5′-GGGUCGGAACCCAAGCUUA dTdT-3′ / 3′-dAdT CCCAGCCUUGGGUUCGAAU-p-5′ | 4 |  |  |  |  |  |  |  | did not elicit an interferon response | 4 |
| LC20-19mer: No 3′ overhangs and unmodified: 5′-GGGUCGGAACCCAAGCUUA-3′ / 3′-CCCAGCCUUGGGUUCGAAU-p-5′ (siRNA; 5' phosphate on antisense, chemistry not fully specified; one strand is listed 3' to 5') | 4 |  |  |  |  |  |  |  | did not elicit an interferon response |  |
| III: β-gal siRNA, rT incorporated in the anti-sense strand only (SEQ ID NO:5/6) (chain 1 CNACACAAANCAGCGANNNTT; chain 2 AAANCGCNGANNNGNGNAGTT; RNA at 1, 2, 3, 4, 5, 6, 7, 8, 9, 10, 11, 12, 13, 14, 15, 16, 17, 18, 19, other sugars, backbone and the base at N not given here; ribothymidine replaces uracil in antisense strand only) |  | 72.4 °C | 69.8 °C | 72.9 °C | 71.9 °C |  | approximately 4.9 °C |  |  |  |

From patent publication US20060122137A1, “5'-methylpyrimidine and 2'-O-methyl ribonucleotide modified double-stranded ribonucleic acid molecules” (Nastech Pharmaceutical Company Inc., priority 2003, published 2006)
